Molecule `CCCC(C)CCl` (stereo not drawn) [1-Chloro-2-methylpentane] registered a flash point of 25.1 °C.

Molecule `CCCC(C)CCCl` (stereo not drawn) [1-Chloro-3-methylhexane] displayed a flash point of 39.2 °C.

Molecule `CCC(C)CCCl` (stereo not drawn) [1-Chloro-3-methylpentane] displayed a flash point of 25.1 °C.

Regarding `CCCCCl` [1-Chlorobutane], the flash point is -11.0 °C.

With `CCCCCCCCl` [1-Chloroheptane], the flash point was determined as 41.8 °C.

Molecule `CCCCCCCCCCCCCCCCCl` [1-Chlorohexadecane] registered a flash point of 138.2 °C.

Take `CCCCCCCl` [1-Chlorohexane]: the flash point turned out to be 26.8 °C.

Regarding `CCCCCCCCCl` [1-Chlorooctane], the flash point was found to be 61.1 °C.

On to `CCCCCCCCCCCCl` [1-Chloroundecane], for which the flash point worked out at 94.5 °C.

`CCC(C)C(C)(C)Cl` (stereo not drawn) [2-Chloro-2,3-dimethylpentane] had a flash point of 29.8 °C.

For the molecule `CC(C)(C)CC(C)(C)Cl` [2-Chloro-2,4,4-trimethylpentane], the flash point was 38.4 °C.

In the case of `CCCCCC(C)(C)Cl` [2-Chloro-2-methylheptane], the flash point is 47.2 °C.

`CCCCCCCC(C)(C)Cl` [2-Chloro-2-methylnonane] had a flash point of 72.2 °C.

Take `CCCC(C)(C)Cl` [2-Chloro-2-methylpentane]: the flash point amounted to 21 °C.

Take `CCCCCCCCC(C)Cl` (stereo not drawn) [2-Chlorodecane]: the flash point is 77.1 °C.

Regarding `CCCCC(C)Cl` (stereo not drawn) [2-Chlorohexane], the flash point stood at 25.1 °C.

As to `CCCCCCCC(C)Cl` (stereo not drawn) [2-Chlorononane], the flash point worked out at 65.2 °C.

Take `CCC(CC)CCl` [3-(Chloromethyl)pentane]: the flash point turned out to be 25.1 °C.

The molecule `CCCC(C)(Cl)C(C)(C)C` (stereo not drawn) [3-Chloro-2,2,3-trimethylhexane] returned a flash point of 51.7 °C.

For `CCCC(C)(Cl)C(C)C` (stereo not drawn) [3-Chloro-2,3-dimethylhexane], the flash point came to 43.6 °C.

In turn, `CCC(Cl)(CC)CC` [3-Chloro-3-ethylpentane] showed a flash point of 33.6 °C.

As for `CCCCC(C)(Cl)CC` (stereo not drawn) [3-Chloro-3-methylheptane], the flash point was found to be 47.2 °C.

Take `CCCCCCC(C)(Cl)CC` (stereo not drawn) [3-Chloro-3-methylnonane]: the flash point stood at 72.2 °C.

On to `CCC(C)(Cl)CC` [3-Chloro-3-methylpentane], for which the flash point was 9.5 °C.

On to `CCCCC(Cl)CC` (stereo not drawn) [3-Chloroheptane], for which the flash point is 39.2 °C.

Molecule `CCCC(Cl)CC` (stereo not drawn) [3-Chlorohexane] gave a flash point of 25.1 °C.

In turn, `CCCCC(Cl)CCCC` [5-Chlorononane] returned a flash point of 65.2 °C.

In the case of `CCCCCCCCC(Cl)CCCC` (stereo not drawn) [5-Chlorotridecane], the flash point worked out at 110.1 °C.

As for `CCC[C@H](Cl)CCCC(C)C` [(S)-6-Chloro-2-methylnonane], the flash point turned out to be 73.8 °C.

This is another data set of the same source.
`CCc1cccc(CC)c1CC` [1,2,3-triethylbenzene] came in with a flash point of 79 °C.

Regarding `Cc1cc(C)cc(C)c1` [1,3,5-trimethylbenzene], the flash point amounted to 44.1 °C.

In turn, `CCCCc1cccc(CCCC)c1` [1,3-dibutylbenzene] displayed a flash point of 109.2 °C.

With `CC(C)(C)c1ccc(C(C)(C)C)cc1` [1,4-di-tert -butylbenzene], the flash point amounted to 97.0 °C.

As to `Cc1ccc(C)c(C(C)C)c1` [1,4-dimethyl-2-isopropylbenzene], the flash point was 64.7 °C.

With `CCCCc1cccc(C)c1` [1-butyl-3-methylbenzene], the flash point was determined as 70.8 °C.

`CCCCc1ccc(C)cc1` [1-butyl-4-methylbenzene]: the flash point worked out at 71.2 °C.

`CCc1cccc(C)c1C` [1-ethyl-2,3-dimethylbenzene] displayed a flash point of 65.1 °C.

The molecule `CCc1ccc(C)cc1C` [1-ethyl-2,4-dimethylbenzene] gave a flash point of 57.1 °C.

`CCc1cc(C)cc(C)c1` [1-ethyl-3,5-dimethylbenzene] registered a flash point of 57.4 °C.

In turn, `Cc1ccccc1CC(C)C` [1-isobutyl-2-methylbenzene] returned a flash point of 68.7 °C.

With `Cc1cc(C)cc(C(C)(C)C)c1` [1-tert -butyl-3,5-dimethylbenzene], the flash point came to 72 °C.

In turn, `CCc1c(C)cccc1C` [2-ethyl-1,3-dimethylbenzene] came in with a flash point of 62.0 °C.

`CCC(C)(C)c1ccccc1` [2-phenyl-2-methylbutane] gave a flash point of 59.4 °C.

`Cc1ccccc1C(C)(C)C` [2-tert -butyltoluene] displayed a flash point of 61.5 °C.

`CC(C)CC(C)Cc1ccccc1` (stereo not drawn) [(2,4-dimethylpentyl)benzene] had a flash point of 87.0 °C.

Molecule `CCC(C)Cc1ccccc1` (stereo not drawn) [(2-methylbutyl)benzene] yielded a flash point of 64.1 °C.

As to `CCCCc1ccccc1` [butylbenzene], the flash point was 58.1 °C.

Molecule `CCCCCCCc1ccccc1` [heptylbenzene] showed a flash point of 95.5 °C.

In the case of `CCCCCCc1ccccc1` [hexylbenzene], the flash point amounted to 83.6 °C.

For the molecule `CC(C)Cc1ccccc1` [isobutylbenzene], the flash point amounted to 50.1 °C.

In the case of `CCc1cccc(CC)c1` [m -diethylbenzene], the flash point is 51.1 °C.

`CCc1cccc(C(C)C)c1` [m -ethylcumene] came in with a flash point of 63 °C.

On to `CCCc1cccc(C)c1` [m -propyltoluene], for which the flash point is 52 °C.

In turn, `CC(C)(C)Cc1ccccc1` [neopentylbenzene] showed a flash point of 50.1 °C.

The molecule `Cc1ccccc1C` [o -xylene] came in with a flash point of 30.1 °C.

In turn, `CCCCCCCCc1ccccc1` [octylbenzene] yielded a flash point of 107.1 °C.

Turning to `CCc1ccc(C(C)C)cc1` [p -ethylcumene], the flash point was determined as 65.8 °C.

For `CCCc1ccc(C)cc1` [p -propyltoluene], the flash point was 56.4 °C.

Regarding `CC(C)(C)c1ccccc1` [tert -butylbenzene], the flash point was 44.1 °C.

The source holds these as a separate data set.
On to `CCCCCl` [1-Chlorobutane], for which the flash point was -9.3 °C.

This is another data set of the same source.
`CCCC[O][Sn]([CH2]CCC)([CH2]CCC)[O]CCCC` [DI-n-BUTYLDI-n-BUTOXYTIN] registered a flash point of 116.00 °C.

For `CCC[CH2][Sn]([CH2]CCC)([O]C(C)=O)[O]C(C)=O` [DI-n-BUTYLDIACETOXYTIN], the flash point worked out at 143.00 °C.

`CCC[CH2][Sn]([CH2]CCC)([O]C)[O]C` [DI-n-BUTYLDIMETHOXYTIN] had a flash point of 110.00 °C.

Consider `C[C](C)(C)[Sn]([Cl])([Cl])[C](C)(C)C` [DI-t-BUTYLDICHLOROTIN], for which the flash point came to 113.00 °C.

In the case of `C=C[CH2][Sn]([CH2]C=C)([CH2]CCC)[CH2]CCC` [DIALLYLDI-n-BUTYLTIN], the flash point stood at 101.00 °C.

`C[N](C)[Sn]([CH3])([CH3])[CH3]` [DIMETHYLAMINOTRIMETHYLTIN] showed a flash point of 1.00 °C.

In turn, `CCCCCCCCCCC[CH2][Sn]([CH2]CCCCCCC)([CH2]CCCCCCC)[CH2]CCCCCCCCCCC` [DIOCTYLDILAURYLTIN] returned a flash point of 198.00 °C.

This is another data set of the same source.
Regarding `CCC(C)(C)c1ccccc1` [2-phenyl-2-methylbutane], the flash point is 65 °C.

The source holds these as a separate data set.
As for `CC(C)[O-].CC(C)[O-].CC(C)[O-].[B+3]` [BORON ISOPROPOXIDE], the flash point is 28.00 °C.

As to `C[O-].C[O-].C[O-].[B+3]` [BORON METHOXIDE], the flash point was -1.00 °C.

The molecule `CCCC[O-].CCCC[O-].CCCC[O-].[B+3]` [BORON n-BUTOXIDE] showed a flash point of 93.00 °C.

Regarding `CCCCC(CC)C(=O)[O-].CCCCC(CC)C(=O)[O-].[Ca+2]` (stereo not drawn) [CALCIUM 2-ETHYLHEXANOATE], the flash point was 127.00 °C.

`[CH3][Cd][CH3]` [DIMETHYLCADMIUM] had a flash point of -18.00 °C.

Molecule `c1ccc(Pc2ccccc2)cc1` [DIPHENYLPHOSPHINE] returned a flash point of 110.00 °C.

In the case of `CC[N-]C.CC[N-]C.CC[N-]C.CC[N-]C.[Hf+4]` [HAFNIUM TETRAKIS(ETHYLMETHYLAMIDE)], the flash point worked out at 10.00 °C.

In the case of `C[CH2][Pb]([CH2]C)([CH2]C)[CH2]C` [TETRAETHYLLEAD], the flash point amounted to 73.00 °C.

Molecule `CC(C)C[O-].CC(C)C[O-].CC(C)C[O-].CC(C)C[O-].[Ti+4]` [TITANIUM ISOBUTOXIDE] showed a flash point of 77.00 °C.

`C[O-].C[O-].C[O-].C[O-].[Ti+4]` [TITANIUM METHOXIDE]: the flash point was found to be 48.00 °C.

As to `Cc1ccccc1[O-].Cc1ccccc1[O-].Cc1ccccc1[O-].Cc1ccccc1[O-].[Ti+4]` [TITANIUM METHYLPHENOXIDE], the flash point is 66.00 °C.

The molecule `C[N-]C.C[N-]C.C[N-]C.C[N-]C.[Ti+4]` [TITANIUM TETRAKIS(DIMETHYLAMIDE)] gave a flash point of 8.00 °C.

As for `CCCC[O-].CCCC[O-].CCCC[O-].CCCC[O-].[Ti+4]` [TITANIUM n-BUTOXIDE], the flash point stood at 76.00 °C.

In turn, `CCOP(OCC)OCC` [TRIETHYLPHOSPHITE] came in with a flash point of 54.00 °C.

Regarding `CCCCCCCCP(CCCCCCCC)CCCCCCCC` [TRIOCTYLPHOSPHINE], the flash point worked out at 147.00 °C.

For `CC[N](CC)[Ta](=[N]C(C)(C)C)([N](CC)CC)[N](CC)CC` [TRIS(DIETHYLAMINO)(t-BUTYLIMINO) TANTALUM], the flash point was 46.00 °C.

`C[Si](C)(C)OB(O[Si](C)(C)C)O[Si](C)(C)C` [TRIS(TRIMETHYLSILOXY)BORON]: the flash point turned out to be 42.00 °C.

`C=C[c-]1cccc1.[Fe+2].c1cc[cH-]c1` [VINYLFERROCENE] showed a flash point of 62.00 °C.

As to `CCCCC(CC)C(=O)[O-].CCCCC(CC)C(=O)[O-].[Zn+2]` (stereo not drawn) [ZINC 2-ETHYLHEXANOATE], the flash point was 127.00 °C.

For the molecule `CC(C)(C)CCCCCC(=O)[O-].CC(C)(C)CCCCCC(=O)[O-].[Zn+2]` [ZINC NEODECANOATE], the flash point turned out to be 102.00 °C.

`CC[N-]C.CC[N-]C.CC[N-]C.CC[N-]C.[Zr+4]` [ZIRCONIUM TETRAKIS(ETHYLMETHYLAMIDE)] displayed a flash point of 10.00 °C.

`CC(C)(C)[O-].CC(C)(C)[O-].CC(C)(C)[O-].CC(C)(C)[O-].[Zr+4]` [ZIRCONIUM t-BUTOXIDE] had a flash point of 85.00 °C.

The source holds these as a separate data set.
`CCCCc1ccccc1` [butylbenzene] returned a flash point of 49 °C.

As to `CCCCCCCc1ccccc1` [heptylbenzene], the flash point worked out at 95 °C.

In the case of `CC(C)Cc1ccccc1` [isobutylbenzene], the flash point turned out to be 55 °C.

(Values after a flash point compilation (Sun et al. 2020).)
